Test results taken from PMC7617869, “Molecular glues that inhibit deubiquitylase activity and inflammatory signaling” (Nature Structural & Molecular Biology, 2025).
“And” between values parts separate entries of the source, which are not always exact repeats. Equal values may be shown once.

Assays:
[1] = test system: ISRE in THP-1 cells (TLR9 agonist ODN 2216); assay: THP-1 ISRE luciferase reporter, ODN 2216 stimulation; assay type: cell-based, human; conditions: ODN 2216 1 µM, 4 μM compound, 16 h
Method: THP-1 in vitro experiments
THP-1-DualTM cells (InvivoGen), derived from a human monocytic cell line, isolated from a patient with acute monocytic leukaemia, were cultured as per manufacturer’s guidance. Cells were seeded at 1x10^6 cells/mL in RPMI1640 media containing 10% fetal bovine serum (FBS), 1% penicillin-streptomycin (PS) (Gibco Laboratories) with DMSO (0.1%) (control) or in media containing JMS-175- […]
ng/mL) (Merck Life Science), ODN 2216 (1 µM) (Miltenyi Biotec), or Poly:IC (1 µg/mL) (InvivoGen).
Tofacitinib (Cambridge Biosciences) at 0.4 µM was used for comparison against a known JAK inhibitor.
Cells were centrifuged at 300 g for 5 minutes. Supernatant was removed and subjected to simultaneous study of the NF -κB pathway, by monitoring the activity of secreted alkaline phosphatase reporter (SEAP), and the IRF pathway, by assessing the activity o f a secreted Lucia luciferase using QUANTI - Blue ™ Solution and QUANTI -Luc™ 4 Lucia/Gaussia (InvivoGen), respectively, as per manufacturer’s instructions. Pelleted cells were used for FACS analysis using IFNα/β R1 APC-conjugated antibody or isotype control (Biotechne, FAB245A and IC002A), or unstained staining procedure with and without Zombie GreenTM (Biolegend). Samples were analysed using CytoFlex LX (Beckman) (50,000 live cells per condition). Median fluorescence intensity for APC channel gated on single cell live cells was analysed and compared as a percentage to control (no stimulation condition). […]

trypsin = assay: Trypsin IQF diubiquitin selectivity assay; assay type: biochemical; conditions: for Normalised V0: Fig. 1e, Trypsin; for TRYPSIN, normalised activity (Ext. 1a): two replicate columns
Method: BRISC DUB activity was measured at room temperature using 1 nM BRISC and 500 nM IQF diubiquitin K63 substrate (LifeSensors, DU6303) in the presence of DMSO and compounds at 10 μM (final concentrations). Assays were performed in 384-well black flat-bottom low-flange plates (Corning, 35373) in buffer containing 50 mM HEPES–NaOH pH 7.0, 100 mM NaCl, 1 mg ml^−1 BSA, 1 mM DTT and 0.03% v/v Brij-35. Then, 10 μl of twofold concentrated enzyme stock was dispensed, followed by transfer of 200 nl of compounds (1 mM stock) using a 384-pin tool and a 15-min incubation at room temperature. Then, 10 μl of twofold concentrated substrate stock was added and the reaction was monitored by measuring fluorescence intensity (excitation, 540 nm; emission, 580 nm) after 20-min incubation at room temperature and ~50% of substrate was consumed. Orthogonal assays for verification of H20 and P12 hit compounds using USP2 (100 nM) and trypsin (125 nM) were performed in identical conditions.
(§1) IQF assays were performed in DUB reaction buffer containing 50 mM HEPES–NaOH pH 7.0, 100 mM NaCl, 0.1 mg ml^−1 BSA, 1 mM DTT and 0.03% v/v Brij-35. […] The final concentration of BRISC WT, all BRISC mutants, HsBRISCΔLoop, MmBRISC and DrBRISCΔNΔC was 1 nM. Other enzymes were tested at the following concentrations: 5 nM ARISC (FL), 10 nM CfBRISCΔNΔC, 250 nM AMSH* (ref. [43]), 500 nM USP2 and 1 μM trypsin (Sigma, 9002-07-7). For Michaelis–Menten experiments, 1 nM BRISC with 0–1 μM IQF K63-linked diubiquitin substrate was used. Michaelis–Menten analyses and Lineweaver–Burk plots were calculated using GraphPad Prism (version 9.0).
(§2) To assess enzymatic activity, BRISC complexes were diluted to concentrations between 1 nM and 50 nM. […] Then, 20-μl enzyme reactions were carried out in 384-well black flat-bottom low-flange plates (Corning, 35373). DUB activity was measured using IQF K63-linked diubiquitin (LifeSensors, DU6303) at 50 nM. Cleaved diubiquitin was monitored by measuring fluorescence intensity (excitation, 544 nm; emission, 575 nm; dichroic mirror, 560 nm). Fluorescence intensity was measured every minute for 30 min at 30 °C. Fluorescence intensity units were plotted against time to generate a linear reaction progress curve, where the initial velocity (V0) corresponds to the gradient of the curve (typically achieved within 15 min). IC50 values were calculated using the GraphPad Prism (version 9.0) built-in dose–response equation for inhibitor concentration versus response (variable slope).

ARISC = target: T1, ARISC (Homo sapiens, UniProt P46736+Q6UWZ7+Q9NXR7); assay: ARISC IQF DUB activity assay; assay type: biochemical; conditions: for Normalised V0: Fig. 1e, ARISC
T1 construct: full-length BRISC (FL), ARISC (FL); made in house; host or cells: Spodoptera frugiperda (Sf9) insect cells, MultiBac
Method: as §1, §2

## Cn1cc(NC(=O)c2c(Cl)cccc2Cl)c(C(=O)NC2CCN(C(=O)c3c(Cl)cccc3Cl)CC2)n1 [AP-5-145]
[1]
  ISRE luciferase signal in THP-1 supernatant: 228.667 and 315.667 and 335.333

## O=C(NC1CCNCC1)c1nn(C(=O)c2c(Cl)cccc2Cl)cc1NC(=O)c1c(Cl)cccc1Cl [JMS-175-2]
trypsin; JMS-175-2 0.02 μM
  Normalised V0: 1.129 and 1.522 and 0.9592
trypsin; JMS-175-2 0.0399999 μM
  Normalised V0: 1.059 and 1.128 and 0.891
trypsin; JMS-175-2 0.0599997 μM
  Normalised V0: 1.053 and 1.443 and 1.028
trypsin; JMS-175-2 0.0799994 μM
  Normalised V0: 1.079 and 1.241 and 1.027
trypsin; JMS-175-2 0.119998 μM
  Normalised V0: 1.132 and 1.572 and 1.058
trypsin; JMS-175-2 0.199996 μM
  Normalised V0: 1.063 and 1.165 and 0.9014
trypsin; JMS-175-2 0.499975 μM
  Normalised V0: 1.046 and 1.263 and 0.9518
trypsin; JMS-175-2 0.799936 μM
  Normalised V0: 1.084 and 1.3 and 1.031
trypsin; JMS-175-2 1.25984 μM
  Normalised V0: 1.117 and 1.247 and 0.9792
trypsin; JMS-175-2 1.9996 μM
  Normalised V0: 1.2322 and 1.34 and 0.9526
trypsin; JMS-175-2 3.159 μM
  Normalised V0: 1.104 and 1.275 and 0.8695
trypsin; JMS-175-2 5.19739 μM
  Normalised V0: 1.019 and 1.261 and 1.016
trypsin; JMS-175-2 7.99364 μM
  Normalised V0: 1.1 and 1.362 and 0.8881
trypsin; JMS-175-2 12.7839 μM
  Normalised V0: 1.055 and 1.3161 and 0.9778
trypsin; JMS-175-2 19.96 μM
  Normalised V0: 1.0605 and 1.284 and 0.9014
trypsin; JMS-175-2 31.4999 μM
  Normalised V0: 1.012 and 1.285 and 0.8918
trypsin; JMS-175-2 50.147 μM
  Normalised V0: 0.965 and 1.142 and 0.7769
trypsin; JMS-175-2 79.7601 μM
  Normalised V0: 0.9096 and 1.115 and 0.8428
trypsin; JMS-175-2 125.99 μM
  Normalised V0: 0.8068 and 0.9447 and 0.6574
trypsin; JMS-175-2 199.922 μM
  Normalised V0: 0.6351 and 0.815 and 0.623
trypsin; log [compound (μM)] 0.1938, listed as H20
  TRYPSIN, normalised activity (Ext. 1a): 1.0307 and 1.0157
trypsin; log [compound (μM)] 0.4949, listed as H20
  TRYPSIN, normalised activity (Ext. 1a): 1.0959 and 1.0924
trypsin; log [compound (μM)] 0.7959, listed as H20
  TRYPSIN, normalised activity (Ext. 1a): 1.0739 and 0.9776
trypsin; log [compound (μM)] 1.0969, listed as H20
  TRYPSIN, normalised activity (Ext. 1a): 1.0282 and 0.9851
trypsin; log [compound (μM)] 1.3979, listed as H20
  TRYPSIN, normalised activity (Ext. 1a): 0.9308 and 0.8423
trypsin; log [compound (μM)] 1.6990, listed as H20
  TRYPSIN, normalised activity (Ext. 1a): 0.8444 and 0.8335
trypsin; log [compound (μM)] 2.0000, listed as H20
  TRYPSIN, normalised activity (Ext. 1a): 0.8160 and 0.6662
trypsin; log [compound (μM)] 2.3010, listed as H20
  TRYPSIN, normalised activity (Ext. 1a): 0.6941 and 0.5461
trypsin; log [compound (μM)] -0.1072, listed as H20
  TRYPSIN, normalised activity (Ext. 1a): 1.2914 and 1.0218
trypsin; log [compound (μM)] -0.4082, listed as H20
  TRYPSIN, normalised activity (Ext. 1a): 1.0017 and 0.9864
trypsin; log [compound (μM)] -0.7093, listed as H20
  TRYPSIN, normalised activity (Ext. 1a): 0.9551 and 0.9457
trypsin; log [compound (μM)] -1.7100, normalisation point
  TRYPSIN, normalised activity (Ext. 1a): 1.0000
ARISC
  inhibition of ARISC: did not inhibit
ARISC; JMS-175-2 0.02 μM
  Normalised V0: 0.8556 and 0.9425 and 1.0233
ARISC; JMS-175-2 0.0399999 μM
  Normalised V0: 1.026 and 1.067 and 1.046
ARISC; JMS-175-2 0.0599997 μM
  Normalised V0: 0.904 and 0.9422 and 0.9811
ARISC; JMS-175-2 0.0799994 μM
  Normalised V0: 0.9323 and 0.9821 and 1.136
ARISC; JMS-175-2 0.119998 μM
  Normalised V0: 0.8786 and 0.8823 and 0.8932
ARISC; JMS-175-2 0.199996 μM
  Normalised V0: 0.9071 and 0.9585 and 0.9413
ARISC; JMS-175-2 0.499975 μM
  Normalised V0: 0.8879 and 0.8767 and 0.9696
ARISC; JMS-175-2 0.799936 μM
  Normalised V0: 0.7555 and 0.9585 and 0.9201
ARISC; JMS-175-2 1.25984 μM
  Normalised V0: 0.8739 and 0.9751 and 0.9993
ARISC; JMS-175-2 1.9996 μM
  Normalised V0: 0.8524 and 0.9491 and 1.046
ARISC; JMS-175-2 3.159 μM
  Normalised V0: 0.8187 and 0.9789 and 0.9215
ARISC; JMS-175-2 5.19739 μM
  Normalised V0: 0.8621 and 0.9152 and 0.9509
ARISC; JMS-175-2 7.99364 μM
  Normalised V0: 0.8584 and 0.954 and 0.9288
ARISC; JMS-175-2 12.7839 μM
  Normalised V0: 0.8845 and 0.9334 and 1.056
ARISC; JMS-175-2 19.96 μM
  Normalised V0: 0.8867 and 0.9068 and 0.9342
ARISC; JMS-175-2 31.4999 μM
  Normalised V0: 0.9307 and 0.9204 and 1.017
ARISC; JMS-175-2 50.147 μM
  Normalised V0: 0.795 and 0.9622 and 0.9115
ARISC; JMS-175-2 79.7601 μM
  Normalised V0: 0.6555 and 0.8717 and 0.8624
